Results: patent publication US11980667B2, “Short TAT oligomers for drug delivery” (The Trustees of Columbia University in the City of New York, priority 2017, dated 2024)
Where a SMILES comes first, the peptide text is derived from it. Where no end group is shown, it is not given here. [ ]: non-standard residue; d: D form. The star is where a group is joined. Phe(4-N(CH2CH2Cl)2) = N[C@@H](Cc1ccc(N(CCCl)CCCl)cc1)C(=O)O; 5FAM = O=C1OC2(c3ccc(O)cc3Oc3cc(O)ccc32)c2ccc(C(=O)*)cc21

Key:
9L-Luc gliosarcoma cells = assay: In vitro cytotoxicity (BrdU and bioluminescence assays); assay type: cell-based; settings: 1-100 μM, 1-hour exposure, viability at 24 hours
Procedure: In vitro cytotoxicity studies and uptake analysis. […] 9L luciferase-expressing (9L-Luc) gliosarcoma cells (provided by Dr. Brian Ross University of Michigan, Ann Arbor) were incubated in a 96 well plate and grown to 95% confluence. 9L-Luc cells were cultured in Delbecco's Modified Eagle Medium (DMEM) with fetal bovine serum (10%), streptomycin ([…]) and penicillin (100 U/ml) and 1-glutamine 2 mM in an atmosphere 95/5% O2 and CO2 with 100% humidity. They were exposed to 1, 10, and 100 μM of the compound for 1-hour and assessed for viability at 24 hours. Data for all three assays was normalized to the survival of untreated cells. Assays were run in triplicate and fluorescence values were averaged for each treatment. The 3% hydrogen peroxide treated cells provided positive controls.

9L cells = settings: one hour exposure, MTT and BrdU assays after 7 days
Procedure: Cytotoxicity Study. 9L cells were grown to confluence in 96-well plates. Individual wells were exposed to no treatment or increasing concentrations of melphalan, TAT monomer, melphalan-conjugated TAT monomer (obtained from a supplier) or melphalan-conjugated TAT dimer (obtained from a supplier). Cells were incubated under these conditions for one hour. Growth factors were then reintroduced and the cells were grown for a week with standard periodic care. After 7 days, MTT and BrdU assays were used to assess cell viability. All tests were done in quadruplicate and data normalized to the untreated group. […] IV injection of the […]

9L-gliosarcoma cells = assay: Membrane fluidity with beta-cyclodextrin cholesterol depletion; assay type: cell-based; settings: 4° C. and 37° C., FIG. 33C
Procedure: 9L-gliosarcoma cells were grown to confluence in T-75 in recommended culture media. Membrane fluidity was determined by using commercially available “Gene Marker” kit. Fluorescein tagged TAT was used for determining uptake of the cell penetrating peptide. To alter membrane fluidity TAT uptake was determined at different temperatures of 4° C., 15° C. 25° C., 35° C. and 37° C.
The role of cholesterol in affecting membrane fluidity was then assessed. Cholesterol content of the membrane was measured using the commercially available Fillipin-III assay. Beta-cyclodextrin was used to deplete membrane cholesterol. The effect of cyclodextrin on TAT uptake of 100 μL at 0.1 mg/mL for 10 minutes at different temperatures was then assessed. Fluorescence was assessed by flow cytometry and confocal imaging was performed as needed.

9L glioma tumor = assay: In vivo uptake of TAT dimer versus monomer by IA-TCH (MSI and confocal imaging); design: species or system rat; settings: dimer 0.25 mg, monomer 0.125 mg, five rats each
Procedure: An additional experiment was performed to assess the in vivo uptake of fluorescein-labeled TAT dimer by IA-TCH. About 14 days after 9L glioma tumor implantation, rats were anesthetized and prepared for TAT dimer delivery experiments. TAT dimer was conjugated with fluorescein such that its concentrations in post mortem samples could be determined immediately by multispectral imaging and confocal imaging. TAT dimer (0.25 mg) and monomer (0.125 mg) were tested using IA-TCH delivery both containing equal amounts of fluorescein were evaluated. […] Animals were sacrificed 15 minutes after TAT injection. Brain tissue was harvested.

9L glioma = assay: Survival after IA-TCH delivery of melphalan or melphalan-conjugated TAT; assay type: in vivo, rat; settings: for Bleeding events: IA-TCH
Procedure: Thirteen 9L glioma-implanted anesthetized rats were intubated and ventilated. The carotid artery of each rat was exposed and cannulated but the ICA was not isolated to minimize surgical trauma. The rats were subjected to delivery of melphalan with adenosine, esmolol and cold saline via IA-TCH. Six rats received 0.25 mg of melphalan, three rats received 0.5 mg melphalan and one rat received 1 mg of melphalan. Remaining rats were either treated with saline or left untreated. After the IA-TCH injection, rats were allowed to recover and sacrificed when pre-determined criteria were met.
A similar procedure was performed on seven 9L glioma-implanted rats using melphalan-conjugated TAT monomer at a dose of 1 mg (0.16 mg melphalan content). However, the ICA was isolated with an aneurysm clip. Survival of the rats was monitored and images of the brains of the rats were obtained by MRI. The same procedure was performed using 5 rats with melphalan-conjugated TAT dimer at a dose of 1 mg (0.08 mg melphalan content).

[1] = Delivery of cell-penetrating peptides to the brain of healthy rats, confocal microscopy; assay type: in vivo, rat; settings: rat, in vivo
Text: Animal preparation, IA-TCH injection, and brain tumor implantation. Animal protocols were approved by the Columbia University Institutional Animal Care and Use Committee (IACUC). Studies were primarily conducted on Sprague-Dawley rats weighing 250 to 300 grams. In the case of electron multiplying charge-coupled device imaging studies, Fisher 344 rats implanted with 9L brain tumors were utilized. The surgical preparation including anesthesia, carotid and femoral cannulation, cerebral blood flow and vital sign monitoring, as well as in vivo fluorescence imaging have been previously described in detail.
IA injections of cell-penetrating peptides (CPPs) were made during TCH as 65 μL pulses totaling 1 ml in volume. TCH was produced by a bolus injection of adenosine, esmolol, and cold saline. Animals were allowed to hemodynamically recover from TCH and euthanized 10 minutes after injection. Uptake of CPPs was assessed with a fluorescence camera and with confocal fluorescence microscopy.
Cell-penetrating peptides. Two experimental cell-penetrating peptides were tested: 1. octaarginine, also called (Arg)8 or R-8 (SEQ ID NO: 13) and 2. trans-activator of transcription or TAT (Lifetien Inc.). The 14 amino acid peptide sequence for TAT is […]COOH (SEQ ID NO: 11). Both cell-penetrating peptides (CPPs) were labeled with fluorescein so that their distribution could be identified by multispectral imaging and with fluorescence microscopy of the frozen brain sections.
Fluorescence and electron multiplying charge-coupled device imaging.

COc1cccc2c1C(=O)c1c(O)c3c(c(O)c1C2=O)C[C@@](O)(C(=O)CO)C[C@@H]3O[C@H]1C[C@H](N)[C@H](O)[C@H](C)O1 [Dox, Doxorubicin]
Relative toxicity (cellular viability) (9L-Luc gliosarcoma cells): highest toxicity

N=C(N)NCCC[C@H](NC(=O)CN)C(=O)N[C@@H](CCCCN)C(=O)N[C@@H](CCCCN)C(=O)N[C@@H](CCCNC(=N)N)C(=O)N[C@@H](CCCNC(=N)N)C(=O)N[C@@H](CCC(N)=O)C(=O)N[C@@H](CCCNC(=N)N)C(=O)N[C@@H](CCCNC(=N)N)C(=O)N[C@@H](CCCNC(=N)N)C(=O)N1CCC[C@H]1C(=O)N1CCC[C@H]1C(=O)N[C@@H](CCC(N)=O)C(=O)N[C@@H](CCC(N)=O)C(=O)O [TAT monomer]
Relative cytotoxicity (cell viability) (9L cells): cytotoxicity increases from TAT monomer to melphalan-conjugated TAT monomer to melphalan-conjugated TAT dimer to melphalan alone

OC[C@H]1O[C@@H]2O[C@H]3[C@H](O)[C@@H](O)[C@@H](O[C@H]4[C@H](O)[C@@H](O)[C@@H](O[C@H]5[C@H](O)[C@@H](O)[C@@H](O[C@H]6[C@H](O)[C@@H](O)[C@@H](O[C@H]7[C@H](O)[C@@H](O)[C@@H](O[C@H]8[C@H](O)[C@@H](O)[C@@H](O[C@H]1[C@H](O)[C@H]2O)O[C@@H]8CO)O[C@@H]7CO)O[C@@H]6CO)O[C@@H]5CO)O[C@@H]4CO)O[C@@H]3CO [beta-cyclodextrin]
Effect on membrane fluidity (9L-gliosarcoma cells): increased fluidity at higher temperatures (37° C.) than at lower temperature (4° C.) in a dose-dependent manner

N=C(N)NCCC[C@H](NC(=O)CNC(=O)[C@H](CCC(N)=O)NC(=O)[C@H](CCC(N)=O)NC(=O)[C@@H]1CCCN1C(=O)[C@@H]1CCCN1C(=O)[C@H](CCCNC(=N)N)NC(=O)[C@H](CCCNC(=N)N)NC(=O)[C@H](CCCNC(=N)N)NC(=O)[C@H](CCC(N)=O)NC(=O)[C@H](CCCNC(=N)N)NC(=O)[C@H](CCCNC(=N)N)NC(=O)[C@H](CCCCN)NC(=O)[C@H](CCCCN)NC(=O)[C@H](CCCNC(=N)N)NC(=O)CNC(=O)c1ccc2c(c1)C(=O)OC21c2ccc(O)cc2Oc2cc(O)ccc21)C(=O)N[C@@H](CCCCN)C(=O)N[C@@H](CCCCN)C(=O)N[C@@H](CCCNC(=N)N)C(=O)N[C@@H](CCCNC(=N)N)C(=O)N[C@@H](CCC(N)=O)C(=O)N[C@@H](CCCNC(=N)N)C(=O)N[C@@H](CCCNC(=N)N)C(=O)N[C@@H](CCCNC(=N)N)C(=O)N1CCC[C@H]1C(=O)N1CCC[C@H]1C(=O)N[C@@H](CCC(N)=O)C(=O)N[C@@H](CCC(N)=O)C(=O)O [fluorescein-labeled TAT dimer, 5-FAM-GRKKRRQRRR PPQQGRKKRR QRRRPPQQ-COOH] (5FAM-GRKKRRQRRRPPQQGRKKRRQRRRPPQQ-OH)
Tumor selective delivery (9L glioma tumor): able to achieve tumor selective drug delivery

N[C@@H](Cc1ccc(N(CCCl)CCCl)cc1)C(=O)O [melphalan, Melphalan, reference compound]
Relative cytotoxicity (cell viability) (9L cells): cytotoxicity increases from TAT monomer to melphalan-conjugated TAT monomer to melphalan-conjugated TAT dimer to melphalan alone
Dose group with peak survival (9L glioma; 0.25, 0.5, 1 mg IA-TCH): peak survival was found in the 0.25 mg melphalan group
Bleeding events (9L glioma): significant bleeding
Survival (9L glioma; melphalan 0.25, 0.5 or 1 mg IA-TCH, p=0.07 versus controls): 30 ± 8 days

N=C(N)NCCC[C@H](NC(=O)CNC(=O)[C@H](CCC(N)=O)NC(=O)[C@H](CCC(N)=O)NC(=O)[C@@H]1CCCN1C(=O)[C@@H]1CCCN1C(=O)[C@H](CCCNC(=N)N)NC(=O)[C@H](CCCNC(=N)N)NC(=O)[C@H](CCCNC(=N)N)NC(=O)[C@H](CCC(N)=O)NC(=O)[C@H](CCCNC(=N)N)NC(=O)[C@H](CCCNC(=N)N)NC(=O)[C@H](CCCCN)NC(=O)[C@H](CCCCN)NC(=O)[C@H](CCCNC(=N)N)NC(=O)CNC(=O)[C@@H](N)Cc1ccc(N(CCCl)CCCl)cc1)C(=O)N[C@@H](CCCCN)C(=O)N[C@@H](CCCCN)C(=O)N[C@@H](CCCNC(=N)N)C(=O)N[C@@H](CCCNC(=N)N)C(=O)N[C@@H](CCC(N)=O)C(=O)N[C@@H](CCCNC(=N)N)C(=O)N[C@@H](CCCNC(=N)N)C(=O)N[C@@H](CCCNC(=N)N)C(=O)N1CCC[C@H]1C(=O)N1CCC[C@H]1C(=O)N[C@@H](CCC(N)=O)C(=O)N[C@@H](CCC(N)=O)C(=O)O [melphalan-conjugated TAT dimer] (H-[Phe(4-N(CH2CH2Cl)2)]GRKKRRQRRRPPQQGRKKRRQRRRPPQQ-OH)
Relative cytotoxicity (cell viability) (9L cells): cytotoxicity increases from TAT monomer to melphalan-conjugated TAT monomer to melphalan-conjugated TAT dimer to melphalan alone
Bleeding events (9L glioma): No significant bleeding events

N=C(N)NCCC[C@H](NC(=O)CNC(=O)[C@@H](N)Cc1ccc(N(CCCl)CCCl)cc1)C(=O)N[C@@H](CCCCN)C(=O)N[C@@H](CCCCN)C(=O)N[C@@H](CCCNC(=N)N)C(=O)N[C@@H](CCCNC(=N)N)C(=O)N[C@@H](CCC(N)=O)C(=O)N[C@@H](CCCNC(=N)N)C(=O)N[C@@H](CCCNC(=N)N)C(=O)N[C@@H](CCCNC(=N)N)C(=O)N1CCC[C@H]1C(=O)N1CCC[C@H]1C(=O)N[C@@H](CCC(N)=O)C(=O)N[C@@H](CCC(N)=O)C(=O)O [melphalan-conjugated TAT monomer]
Relative cytotoxicity (cell viability) (9L cells): cytotoxicity increases from TAT monomer to melphalan-conjugated TAT monomer to melphalan-conjugated TAT dimer to melphalan alone
Tolerability (9L glioma; 1 mg IA-TCH): well tolerated
Bleeding events (9L glioma): Only one of seven animals showed some evidence of a tail bleed

octaarginine (RRRRRRRR; also: FITC label, position not given here) [FITC labeled R8, reference compound]
Deposition by hemisphere [1]: detectable deposition preferentially to the hemisphere ipsilateral to carotid injection
Distribution in the brain (semi-quantitative) [1]: more discrete and predominantly within vessel walls
